Data set [1] can be described thus: Caco-2 A-B and B-A permeability test. The class given is in vitro ADME. Conditions: human. As for the experimental part:
Subsequently, Caco-2 A-B and B-A permeability tests (pH 7.4) were performed on the […]-107 molecules in order to assess their human intestinal permeability and drug efflux. This assay measures the […] rate of transport of a compound across the Caco-2 cell line that is derived from a human colon carcinoma. The cells have characteristics that resemble intestinal epithelial cells such as the formation of a polarized monolayer, well-defined brush border on the apical surface and intercellular junctions.
A general note: Caco-2 monolayers are a common model of the intestinal barrier.

The test system of data set [2] is Aβ oligomer induced changes in membrane trafficking in 21 DIV primary rodent neuronal cultures. Put plainly: Membrane trafficking assay (MTT) in primary neuronal cultures treated with oligomeric Aβ. Format: cell-based. The settings on record: read-out: MTT ASSAY EC50. On the procedure: Seven drug candidates (A0101-A0107) (FIG. 2) were tested in a primary cell biological screening assay capable of measuring Aβ oligomer induced changes in membrane trafficking in 21 DIV primary rodent neuronal cultures (see Izzo et al., PLoS ONE 9(11):e111899, 2014). Briefly, cultures were treated with either oligomeric Aβ or oligomeric Aβ plus a candidate compound for 24 hours. Non-Aβ treated cells served as a negative control. Next, a non-membrane permeable dye (MTT) was added to the dishes for 1 hour, during which time the dye can be internalized by endocytosis. At the end of the hour, the dye containing media was removed, the dishes were rinsed extensively with isotonic buffer, and finally, the washed cells were extracted with a Triton X-100 buffer to solubilize membranes and release the dye, which is quantitated.

For data set [3], the target named is Human Ether-á-go-go-Related-Gene channel (hERG) (Homo sapiens, UniProt Q12809). Put plainly: hERG cellular patch-clamp assay (cardiac toxicity). On the technique in general: hERG is a cardiac potassium channel; its block is linked to QT prolongation.
Human Ether-á-go-go-Related-Gene channel (hERG), sequence (Q12809 whole entry): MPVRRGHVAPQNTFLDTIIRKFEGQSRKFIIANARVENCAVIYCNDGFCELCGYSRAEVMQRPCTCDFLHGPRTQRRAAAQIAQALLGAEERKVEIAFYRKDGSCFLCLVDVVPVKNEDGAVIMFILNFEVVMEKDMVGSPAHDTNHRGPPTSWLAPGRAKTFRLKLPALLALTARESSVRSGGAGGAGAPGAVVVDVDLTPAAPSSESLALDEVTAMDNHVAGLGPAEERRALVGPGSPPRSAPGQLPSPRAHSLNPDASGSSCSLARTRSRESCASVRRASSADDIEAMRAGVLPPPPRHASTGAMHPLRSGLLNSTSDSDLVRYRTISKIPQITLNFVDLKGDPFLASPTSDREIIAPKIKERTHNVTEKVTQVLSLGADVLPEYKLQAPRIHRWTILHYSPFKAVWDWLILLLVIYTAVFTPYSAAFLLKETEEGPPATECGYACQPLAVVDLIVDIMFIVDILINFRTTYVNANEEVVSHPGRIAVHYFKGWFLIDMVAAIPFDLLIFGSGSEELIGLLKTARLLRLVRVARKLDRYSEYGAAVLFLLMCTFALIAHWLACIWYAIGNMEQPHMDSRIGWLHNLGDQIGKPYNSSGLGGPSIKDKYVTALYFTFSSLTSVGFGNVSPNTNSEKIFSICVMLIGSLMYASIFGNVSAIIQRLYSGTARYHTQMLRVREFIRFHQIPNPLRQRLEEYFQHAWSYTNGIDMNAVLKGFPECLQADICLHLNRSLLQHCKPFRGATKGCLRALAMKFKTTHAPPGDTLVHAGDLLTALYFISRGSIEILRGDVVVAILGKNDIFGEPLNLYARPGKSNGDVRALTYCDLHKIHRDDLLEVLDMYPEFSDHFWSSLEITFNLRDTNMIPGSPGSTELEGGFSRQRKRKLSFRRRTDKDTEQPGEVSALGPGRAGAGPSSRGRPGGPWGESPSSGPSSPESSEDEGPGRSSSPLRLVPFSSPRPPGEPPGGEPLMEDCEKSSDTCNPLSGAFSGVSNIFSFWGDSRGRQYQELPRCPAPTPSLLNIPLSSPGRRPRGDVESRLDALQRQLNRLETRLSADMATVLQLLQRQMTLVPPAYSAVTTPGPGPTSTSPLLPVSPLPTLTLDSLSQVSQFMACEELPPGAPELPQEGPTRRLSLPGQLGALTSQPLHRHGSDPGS
From the text: Contract laboratories provided screening of hERG ion channel cell lines as an indicator of cardiac safety. […] Cellular “patch-clamp” assays provide the data required by ICH guidelines.
For another data set, the target named is wild type Aβ42 (Homo sapiens, UniProt P05067). Put plainly: IMS-MS assay for Aβ42 oligomer formation (arrival time distributions). Conditions: for Aβ42 wt dodecamer formation (overall conclusion): 10 μM in 10 mM ammonium acetate. On the procedure:
A physiologically relevant solution of Aβ42 and a drug candidate was incubated for varying periods of time and then loaded into a special spray capillary and the solution nano-electrosprayed, captured by an ion funnel, transported, dehydrated and continuously fed into a quadrapole mass analyser, and detected. This process yielded a mass spectrum. In order to obtain either structural or oligomeric information, the ions were next stored at the end of the funnel and then pulse injected at low energy into a drift cell filled with helium gas and subjected to a low electric field to transport the ions through the cell. The quadrapole is set to pass a particular mass to charge ratio (m=z), and an arrival time distribution (ATD) of the ions at this m=z is obtained at the detector (see, e.g., Bernstein et al., Journal of the American Chemical Society, 127(7):2075-2084, 2005). All molecules were at a concentration of 10 μM in 10 mM ammonium acetate.
By collecting Arrival Time Distributions (ATDs) of each of these charge states, ions of the same mass-to-charge (m/z) ratio were separated by their size and shape.
Using kinetic theory and parameters of the experiment, arrival times are related to an ion's mobility in the drift cell, which is inversely proportional to the ion's collision cross section. Oligomer formation is shown for dimer (n=2) up to dodecamer (n=12) for the z/n=−5/2 charge state.
For example, the peak in z/n=−3 ATD with a collision cross section of 698 Å^2 corresponds to a less compact solution-phase monomer structure. The peak of 642 Å^2 corresponds to a more compact gas phase structure.

The mark [4] stands for this setting: Caco-2, apical to basolateral, pH 7.4, read-out: A-B perm.
The mark [5] stands for this setting: Caco-2, basolateral to apical, pH 7.4, read-out: B-A perm.

Read-outs that look alike come from different tables or passages of the source.

Broadly, the EC50 is the concentration at which the effect is half-maximal. By IC50 is commonly meant the concentration needed to halve the response being measured.

wild type Aβ42, sequence (P05067 672-713 limits assumed): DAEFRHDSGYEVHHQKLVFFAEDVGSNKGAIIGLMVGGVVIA

On to `CC(C)NCC(O)COc1cccc2ccccc12` (centres unmarked) [propranolol, reference compound], for which the Papp A→B in data set [1] (setting [4]) turned out to be 606 nm/s. The Papp B→A in data set [1] (setting [5]) is 242 nm/s.
With `CC(=O)Nc1ccc(CNCCc2cccc(Cl)c2)cc1` [AC0101, N-[4-({[2-(3-chlorophenyl)ethyl]amino}methyl)phenyl]acetamide], in data set [2], the concentration giving a half-maximal response (EC50) is 3.9 µM. For the same molecule, in data set [1] (setting [4]), the Papp A→B was determined as 1010 nm/s. Besides, in data set [1] (setting [5]), the Papp B→A was found to be 416 nm/s. In addition, in data set [3], the IC50 was 8 µM. Moreover, in data set [3] (summary of Table 2, 4th column), the “hERG inhibition (in words)” value is reported as “moderate potency”.
For `CN(C)Cc1ccc(CNCc2ccc3c(c2)OCCO3)cc1` [AC0102, (2,3-dihydro-1,4-benzodioxin-6-ylmethyl)({4[(dimethylamino)methyl]-phenyl}methyl)amine], the EC50 in data set [2] was 3.5 µM. Also, the Papp A→B in data set [1] (setting [4]) is 300 nm/s. Also, the Papp B→A in data set [1] (setting [5]) is 45 nm/s. This molecule had an IC50 in data set [3] of over 10 µM.
With `C[C@@H](NCCCc1cccc(C(F)(F)F)c1)c1cccc2ccccc12` [Cinacalcet, reference compound], on wild type Aβ42 (IMS-MS), the “Aβ42 wt dodecamer formation (overall conclusion)” value is “did not inhibit”.
In data set [1] (Caco-2, pH 7.4), `CNC(=C[N+](=O)[O-])NCCSCc1ccc(CN(C)C)o1` [ranitidine, reference compound] displayed a Papp A→B of 7 nm/s and a Papp B→A of 35 nm/s.
Turning to `N#Cc1ccc(CNCc2cccc(CN3CCCC3)c2)cc1` [AC0107, 4-[({[3-(pyrrolidin-1-ylmethyl)phenyl]methyl}amino)methyl]benzonitrile], in data set [2], the 50% effective concentration (EC50) is 0.45 µM. Besides, the Papp A→B in data set [1] (setting [4]) worked out at 184 nm/s. In data set [1] (setting [5]), the Papp B→A came to 65 nm/s. Further, the “relative amounts of earlier arriving structures in z/n=−4 ATD” value at wild type Aβ42 (1:10 Aβ42 wt to compound, day 2) is “reduces”. Besides, the “wild type Aβ42 dodecamer formation” value on wild type Aβ42 (1:10 Aβ42 wt to compound, day one) is recorded as “inhibited”. In addition, at wild type Aβ42 (IMS-MS), the Aβ42 hexamer growth result is reported as “slowing hexamer growth” and the “Aβ42 wt dodecamer formation (overall conclusion)” value is listed as “inhibitor of Aβ42 wt dodecamer formation”. Further, the “dodecamer formation in z/n=−5/2 ATD” value on wild type Aβ42 (after 29 hours) is reported as “still inhibited”. Moreover, the “earlier arriving structures in z/n=−3 ATD” value at wild type Aβ42 (between 26 and 30 hours incubation time) is reported as “disappear”. Also, the half-maximal inhibitory concentration (IC50) in data set [3] was over 10 µM.
In the case of `CN(C)C(=O)C(c1ccccc1)N1CCN(c2ccc(O)cc2)CC1` (centres unmarked) [AC0103, 2-[4-(4-hydroxyphenyl)piperazin-1-yl]-N,N-dimethyl-2 phenylacetamide], the EC50 in data set [2] was found to be 1.3 µM. In addition, the Papp A→B in data set [1] (setting [4]) was found to be 616 nm/s. Besides, the Papp B→A in data set [1] (setting [5]) is 397 nm/s. The IC50 in data set [3] was over 10 µM.
Consider `COc1cc2c(c(OC)c1OC)-c1ccc(OC)c(=O)cc1[C@@H](NC(C)=O)CC2` [colchicine, reference compound], for which, in data set [1] (setting [4]), the Papp A→B was determined as 1 nm/s. Further, in data set [1] (setting [5]), the Papp B→A amounted to 139 nm/s.
As for `N#Cc1cccc(CNCc2ccc(CN3CCOCC3)cc2)c1` [AC0104, 3-[({[4-(morpholin-4 ylmethyl)phenyl]methyl}amino)methyl]benzonitrile], in data set [2], the concentration giving a half-maximal response (EC50) is 0.7 µM. For the same molecule, in data set [1] (setting [4]), the Papp A→B turned out to be 594 nm/s. In addition, in data set [1] (setting [5]), the Papp B→A worked out at 139 nm/s. For the same molecule, in data set [3], the IC50 is over 10 µM.
On to `Cc1cc(CN2CC=C(c3ccc(O)cc3)CC2)no1` [AC0106, 4-{1-[(5-methyl-1,2-oxazol-3-yl)methyl]-1,2,3,6tetrahydropyridin-4-yl}phenol], for which, in data set [2], the 50% effective concentration (EC50) came out at 1 µM. The Papp A→B in data set [1] (setting [4]) worked out at 744 nm/s. Besides, the Papp B→A in data set [1] (setting [5]) came out at 423 nm/s. This molecule registered an IC50 in data set [3] of over 10 µM.

These data come from patent US11827582B2, “Substituted amines as disrupters of ABETA42 oligomer formation” (ACELOT, INC., priority 2017, dated 2023).
